Structures can show the parent of a compound that is named as a salt. Where two headings read alike, the source gives them in different places.

In test [1] the target is PI3Kγ (p110γ) Recombinant Human Protein (Homo sapiens (Human), UniProt P48736). The experiment in a line: PI3K-γ Scintillation Proximity Assay. The class given is biochemical. The conditions noted are these: read-out: PI3Kγ IC50. Put shortly:
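Recombinant human p110γ assayed at room temperature in 20 mM MOPS pH 6.7, 10 mM MgCl2, 5 mM DTT, 0.03% CHAPS, 2% DMSO, with 20 μM PIP2 and 2 μM ATP plus [γ-33P]ATP. Product captured on WGA SPA beads overnight and counted; IC50 fitted from % of solvent-control activity versus log inhibitor concentration.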

Test [2] has as its system Phosphorylated Ribosomal Protein S6 (RPS6). The experiment in a line: THP-1 RPS6 ELISA Assay. To be noted: THP-1 cells, read-out: PI3Kγ_THP1_RPS6_ELISA IC50. The class given is cell-based, Human. The method, boiled down: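 Serum-starved THP-1 cells were preincubated with a concentration range of compound for 2 h at 37 °C, then stimulated with 10 nM MCP-1 for 15 min. Phospho-RPS6 in lysates was quantified by ELISA at 450 nm. IC50 came from percent inhibition versus log inhibitor concentration.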

Test [3] deals with PI3Kδ (p110δ/p85α) Recombinant Human Protein (Homo sapiens (Human), UniProt O00329). The experiment in a line: PI3Kδ Scintillation Proximity Assay. Format: biochemical. Put shortly: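 Kinase reaction run at room temperature in 20 mM MOPS pH 6.7, 10 mM MgCl2, 5 mM DTT, 0.03% CHAPS with 20 μM PIP2, 2 μM ATP plus [γ-33P]ATP, 3.4 nM enzyme, 2% DMSO; 120 min. Quenched with WGA SPA beads/EDTA, counted by scintillation; IC50 from % solvent-control activity vs log concentration.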
Sequence of PI3Kδ (p110δ/p85α) Recombinant Human Protein (O00329 whole entry): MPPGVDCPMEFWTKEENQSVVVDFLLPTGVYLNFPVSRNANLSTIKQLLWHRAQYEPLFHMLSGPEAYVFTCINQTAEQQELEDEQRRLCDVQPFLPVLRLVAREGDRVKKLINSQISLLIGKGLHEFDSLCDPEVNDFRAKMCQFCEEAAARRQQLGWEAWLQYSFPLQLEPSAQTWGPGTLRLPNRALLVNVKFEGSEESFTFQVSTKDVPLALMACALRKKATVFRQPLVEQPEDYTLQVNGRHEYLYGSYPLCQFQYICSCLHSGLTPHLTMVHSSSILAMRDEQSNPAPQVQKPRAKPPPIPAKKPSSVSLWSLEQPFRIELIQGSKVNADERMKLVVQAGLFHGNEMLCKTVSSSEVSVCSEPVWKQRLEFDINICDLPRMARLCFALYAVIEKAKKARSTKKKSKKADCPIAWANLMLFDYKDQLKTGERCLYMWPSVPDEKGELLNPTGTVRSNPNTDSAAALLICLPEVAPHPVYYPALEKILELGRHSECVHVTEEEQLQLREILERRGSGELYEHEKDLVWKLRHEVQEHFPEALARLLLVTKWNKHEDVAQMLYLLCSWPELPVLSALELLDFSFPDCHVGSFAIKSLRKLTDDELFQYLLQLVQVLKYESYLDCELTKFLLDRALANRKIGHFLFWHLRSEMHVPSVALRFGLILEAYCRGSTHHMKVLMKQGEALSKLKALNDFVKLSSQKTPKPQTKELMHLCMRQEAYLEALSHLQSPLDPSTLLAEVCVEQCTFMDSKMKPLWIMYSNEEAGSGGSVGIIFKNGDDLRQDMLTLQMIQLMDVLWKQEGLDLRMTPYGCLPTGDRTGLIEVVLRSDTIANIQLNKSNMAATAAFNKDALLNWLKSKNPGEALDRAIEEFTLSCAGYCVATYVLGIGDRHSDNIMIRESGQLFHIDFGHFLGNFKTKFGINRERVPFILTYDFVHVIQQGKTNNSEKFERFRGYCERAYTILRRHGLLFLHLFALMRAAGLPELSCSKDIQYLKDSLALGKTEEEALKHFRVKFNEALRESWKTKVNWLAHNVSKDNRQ
Sequence of PI3Kδ (p110δ/p85α) Recombinant Human Protein (P27986 whole entry partner): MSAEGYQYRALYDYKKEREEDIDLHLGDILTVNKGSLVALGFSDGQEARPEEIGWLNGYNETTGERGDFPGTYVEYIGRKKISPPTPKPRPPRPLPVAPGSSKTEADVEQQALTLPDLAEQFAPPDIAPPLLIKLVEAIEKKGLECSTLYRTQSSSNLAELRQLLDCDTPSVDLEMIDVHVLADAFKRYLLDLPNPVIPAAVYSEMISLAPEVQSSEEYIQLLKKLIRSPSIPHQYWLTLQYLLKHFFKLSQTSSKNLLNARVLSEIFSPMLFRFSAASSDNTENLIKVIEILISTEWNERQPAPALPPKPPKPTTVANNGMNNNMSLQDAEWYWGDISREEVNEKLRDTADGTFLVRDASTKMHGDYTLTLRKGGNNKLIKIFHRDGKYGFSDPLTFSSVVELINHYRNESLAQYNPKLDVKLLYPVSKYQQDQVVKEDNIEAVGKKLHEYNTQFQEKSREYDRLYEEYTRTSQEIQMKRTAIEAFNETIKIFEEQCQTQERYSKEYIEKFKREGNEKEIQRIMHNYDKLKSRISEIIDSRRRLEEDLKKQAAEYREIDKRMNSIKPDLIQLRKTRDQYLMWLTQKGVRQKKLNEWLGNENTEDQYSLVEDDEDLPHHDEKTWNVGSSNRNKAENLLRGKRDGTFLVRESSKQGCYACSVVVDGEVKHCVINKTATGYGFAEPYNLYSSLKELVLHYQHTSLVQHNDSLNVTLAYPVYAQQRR

Sequence of PI3Kγ (p110γ) Recombinant Human Protein (P48736 whole entry): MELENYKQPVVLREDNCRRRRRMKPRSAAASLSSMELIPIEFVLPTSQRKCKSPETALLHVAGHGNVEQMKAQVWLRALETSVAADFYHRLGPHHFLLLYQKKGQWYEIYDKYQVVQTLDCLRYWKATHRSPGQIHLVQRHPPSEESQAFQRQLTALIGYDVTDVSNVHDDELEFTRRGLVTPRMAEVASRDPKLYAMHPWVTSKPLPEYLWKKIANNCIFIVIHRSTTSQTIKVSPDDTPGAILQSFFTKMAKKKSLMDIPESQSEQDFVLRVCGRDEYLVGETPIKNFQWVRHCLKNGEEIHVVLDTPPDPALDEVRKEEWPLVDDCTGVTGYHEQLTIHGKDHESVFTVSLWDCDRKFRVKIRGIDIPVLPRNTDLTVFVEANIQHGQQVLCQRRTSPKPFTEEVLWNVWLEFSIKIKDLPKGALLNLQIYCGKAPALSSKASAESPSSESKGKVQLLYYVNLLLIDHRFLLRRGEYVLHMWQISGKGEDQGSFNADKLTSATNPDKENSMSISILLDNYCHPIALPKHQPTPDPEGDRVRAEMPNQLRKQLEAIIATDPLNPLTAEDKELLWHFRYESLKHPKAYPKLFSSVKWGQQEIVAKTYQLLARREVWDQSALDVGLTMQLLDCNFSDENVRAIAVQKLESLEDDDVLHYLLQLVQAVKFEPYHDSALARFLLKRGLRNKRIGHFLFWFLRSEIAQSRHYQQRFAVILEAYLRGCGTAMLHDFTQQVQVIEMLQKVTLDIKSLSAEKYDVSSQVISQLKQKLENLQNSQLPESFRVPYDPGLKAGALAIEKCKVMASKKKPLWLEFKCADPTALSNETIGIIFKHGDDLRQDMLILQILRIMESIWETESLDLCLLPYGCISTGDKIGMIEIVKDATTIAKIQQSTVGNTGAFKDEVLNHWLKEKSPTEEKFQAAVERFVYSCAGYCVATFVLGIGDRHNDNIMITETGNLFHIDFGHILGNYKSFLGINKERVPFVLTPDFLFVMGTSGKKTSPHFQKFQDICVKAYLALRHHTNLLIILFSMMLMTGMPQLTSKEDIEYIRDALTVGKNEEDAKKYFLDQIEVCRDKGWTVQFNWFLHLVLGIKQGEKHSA

Consider `Cc1ccc(S(=O)(=O)N2CC3NCC2C3O)cc1-c1cnc2c(N)nc(C(F)(F)F)nn12` (stereo not drawn) [Example 355, 2-((3-(4-amino-2-(trifluoromethyl)imidazo[2,1-f][1,2,4]triazin-7-yl)-4-methylphenyl)sulfonyl)-2,5-diazabicyclo[2.2.1]heptan-7-ol], for which the IC50 in test [1] is less than 100 nM; in test [2] (Homo sapiens) it was 100 to 500 nM; in test [3], 100 to 500 nM.

For the compound `Cc1ccc(S(=O)(=O)N[C@H]2C[C@H](CO)C2)cc1-c1cnc2c(N)nc(C(F)(F)F)nn12` [Example 323, 3-(4-Amino-2-(trifluoromethyl)imidazo[1,2-f][1,2,4]triazin-7-yl)-N-((1r,3r)-3-(hydroxymethyl)cyclobutyl)-4-methylbenzenesulfonamide trifluoroacetate salt], the results for the concentration for half-maximal inhibition (IC50) in test [1], in test [2] and in test [3] were less than 100 nM, less than 100 nM and 100 to 500 nM, respectively.

Consider `Cc1ccc(S(=O)(=O)N2CCC3(CCOCC3)C2C)cc1-c1cnc2c(N)ncnn12` (stereo not drawn) [Example 206, 7-(2-Methyl-5-((1-methyl-8-oxa-2-azaspiro[4.5]decan-2-yl)sulfonyl)phenyl)imidazo[2,1-f][1,2,4]triazin-4-amine], for which the concentration for half-maximal inhibition (IC50) is less than 100 nM in test [1], more than 1000 nM in test [2] (Homo sapiens) and 500 to 2000 nM in test [3].

Take `Cc1ccc(S(C)(=O)=O)cc1-c1cnc2c(N)nc(-c3cccc(CO)c3F)cn12` [Example 481, (3-(8-Amino-3-(2-methyl-5-(methylsulfonyl)phenyl)imidazo[1,2-a]pyrazin-6-yl)-2-fluorophenyl)methanol]: the IC50 was less than 100 nM in test [1], 100 to 500 nM in test [2] (Homo sapiens) and 100 to 500 nM in test [3].

As for `Cc1nc(N)c2ncc(-c3cc(S(=O)(=O)N[C@H]4CC[C@](C)(O)CC4)ccc3C)n2n1` [Example 271, 3-(4-amino-2-methylimidazo[1,2-f][1,2,4]triazin-7-yl)-N-((1r,4r)-4-hydroxy-4-methylcyclohexyl)-4-methylbenzenesulfonamide trifluoroacetate salt], the IC50 in test [1] is less than 100 nM; in test [2], less than 100 nM; in test [3], 100 to 500 nM.

`Cc1ccc(S(=O)(=O)N[C@H]2CC[C@H](CO)OC2)cc1-c1cnc2c(N)nccn12` [Example 57, 3-(8-Aminoimidazo[1,2-a]pyrazin-3-yl)-N-[(3S,6R)-6-(hydroxymethyl)tetrahydro-2H-pyran-3-yl]-4-methylbenzenesulfonamide]: the concentration for half-maximal inhibition (IC50) in test [1] was less than 100 nM; in test [2] (Homo sapiens), more than 1000 nM; in test [3] it was 500 to 2000 nM.

With `Cc1ccc(S(=O)(=O)N[C@H]2CC[C@@](C)(O)CC2)cc1-c1cnc2c(N)ncnn12` [Example 133, 3-(4-aminoimidazo[2,1-f][1,2,4]triazin-7-yl)-N-((1S,4S)-4-hydroxy-4-methylcyclohexyl)-4-methylbenzenesulfonamide], the IC50 is less than 100 nM in test [1], more than 1000 nM in test [2] and 500 to 2000 nM in test [3].

On to `Cc1ccc(S(=O)(=O)N[C@H]2CC[C@H](C(C)(C)O)CC2)cc1-c1cnc2c(N)ncnn12` [Example 125, 3-(4-aminoimidazo[2,1-f][1,2,4]triazin-7-yl)-N-[trans-4-(1-hydroxy-1-methylethyl)cyclohexyl]-4-methylbenzenesulfonamide], for which the results for the 50% inhibitory concentration (IC50) in test [1], in test [2] (Homo sapiens) and in test [3] were less than 100 nM, more than 1000 nM and 500 to 2000 nM, respectively.

For the compound `Cc1ccc(S(=O)(=O)NC23CC(C(N)=O)(C2)C3)cc1-c1cnc2c(N)nc(C(F)(F)F)cn12` [Example 288, 3-(3-(8-Amino-6-(trifluoromethyl)imidazo[1,2-a]pyrazin-3-yl)-4-methylphenylsulfonamido)bicyclo[1.1.1]pentane-1-carboxamide trifluoroacetate salt], the IC50 in test [1] is less than 100 nM; in test [2] (Homo sapiens) it was 100 to 500 nM; in test [3], 100 to 500 nM.

For the compound `N#CC12CCC(NS(=O)(=O)c3cc(-c4cnc5c(N)nc(C(F)(F)F)nn45)ccc3F)(C1)C2` [Example 417, 5-(4-Amino-2-(trifluoromethyl)imidazo[1,2-f][1,2,4]triazin-7-yl)-N-(4-cyanobicyclo[2.1.1]hexan-1-yl)-2-fluorobenzenesulfonamide trifluoroacetate salt], the results for the IC50 in test [1], in test [2] and in test [3] were less than 100 nM, 500 to 1000 nM and 100 to 500 nM, respectively.

For the compound `Cc1ccc(S(=O)(=O)NCCCO)cc1-c1cnc2c(N)ncnn12` [Example 65, 3-(4-Aminoimidazo[2,1-f][1,2,4]triazin-7-yl)-N-(3-hydroxypropyl)-4-methylbenzenesulfonamide], the IC50 in test [1] is less than 100 nM; in test [2] (Homo sapiens), more than 1000 nM; in test [3], more than 2000 nM.

As to `Cc1ccc(S(=O)(=O)N[C@H]2CC[C@H](O)CC2)cc1-c1cnc2c(N)nc(-c3cccnc3)cn12` [Example 26, 3-(8-Amino-6-pyridin-3-ylimidazo[1,2-a]pyrazin-3-yl)-N-(trans-4-hydroxycyclohexyl)-4-methylbenzenesulfonamide], the IC50 in test [1] was less than 100 nM; in test [2] (Homo sapiens), 100 to 500 nM; in test [3] it was less than 100 nM.

Consider `Cc1ccc(S(=O)(=O)N2CCC(O)CC2)cc1-c1cnc2c(N)nccn12` [Example 51, 1-{[3-(8-Aminoimidazo[1,2-a]pyrazin-3-yl)-4-methylphenyl]sulfonyl}piperidin-4-ol], for which the half-maximal inhibitory concentration (IC50) in test [1] is less than 100 nM; in test [2] (Homo sapiens), more than 1000 nM; in test [3], 500 to 2000 nM.

For `Cc1ccc(S(=O)(=O)N[C@H]2CC[C@](C)(O)CC2)cc1-c1cnc2c(N)nc(C(F)(F)F)nn12` [Example 327, 3-(4-Amino-2-(trifluoromethyl)imidazo[1,2-f][1,2,4]triazin-7-yl)-N-((1r,4r)-4-hydroxy-4-methylcyclohexyl)-4-methylbenzenesulfonamide trifluoroacetate salt], the IC50 in test [1] is less than 100 nM; in test [2], 100 to 500 nM; in test [3], 100 to 500 nM.

As for `Cc1ccc(S(=O)(=O)N2CC(O)(C3CC3)C2)cc1-c1cnc2c(N)ncnn12` [Example 144, 1-((3-(4-aminoimidazo[2,1-f][1,2,4]triazin-7-yl)-4-methylphenyl)sulfonyl)-3-cyclopropylazetidin-3-ol, TFA], the concentration for half-maximal inhibition (IC50) is less than 100 nM in test [1], 500 to 1000 nM in test [2] and 100 to 500 nM in test [3].

In the case of `Cc1ccc(S(=O)(=O)NC2CCC(C)(O)CC2)cc1-c1cnc2c(N)nccn12` (stereo not drawn) [Example 85, 3-(8-aminoimidazo[1,2-a]pyrazin-3-yl)-N-(trans-4-hydroxy-4-methylcyclohexyl)-4-methylbenzenesulfonamide], the IC50 in test [1] is less than 100 nM; in test [2], 100 to 500 nM; in test [3], 500 to 2000 nM.

For `Cc1ccc(S(=O)(=O)N(C)[C@H]2CN(C)C[C@@H]2O)cc1-c1cnc2c(N)nc(C(F)(F)F)cn12` [Example 299, 3-(8-amino-6-(trifluoromethyl)imidazo[1,2-a]pyrazin-3-yl)-N-((3S,4S)-4-hydroxy-1-methylpyrrolidin-3-yl)-N,4-dimethylbenzenesulfonamide], the IC50 in test [1] is less than 100 nM; in test [2] (Homo sapiens), 100 to 500 nM; in test [3], 100 to 500 nM.

Turning to `CC(=O)NC1CCN(S(=O)(=O)c2ccc(C)c(-c3cnc4c(N)ncnn34)c2)C1` (stereo not drawn) [Example 199, N-(1-((3-(4-Aminoimidazo[2,1-f][1,2,4]triazin-7-yl)-4-methylphenyl)sulfonyl)pyrrolidin-3-yl)acetamide], the IC50 in test [1] was less than 100 nM; in test [2] (Homo sapiens), 500 to 1000 nM; in test [3] it was 500 to 2000 nM.

With `Cc1cn2c(-c3cc(S(=O)(=O)N[C@H]4CC[C@](C)(O)CC4)ccc3C)cnc2c(N)n1` [Example 505, 3-(8-Amino-6-methylimidazo[1,2-a]pyrazin-3-yl)-N-((1r,4r)-4-hydroxy-4-methylcyclohexyl)-4-methylbenzenesulfonamide], the IC50 in test [1] is less than 100 nM; in test [2] (Homo sapiens), 100 to 500 nM; in test [3], less than 100 nM.

For the compound `Cc1ccc(S(=O)(=O)NCC2(C#N)CCC2)cc1-c1cnc2c(N)ncnn12` [Example 102, 3-(4-Aminoimidazo[1,2-f][1,2,4]triazin-7-yl)-N-((1-cyanocyclobutyl)methyl)-4-methylbenzenesulfonamide trifluoroacetate salt], the values for the concentration for half-maximal inhibition (IC50) in test [1], in test [2] and in test [3] were less than 100 nM, 100 to 500 nM and 100 to 500 nM, respectively.

Consider `Cc1ccc(S(=O)(=O)N[C@H]2CC[C@H](O)CC2)cc1-c1cnc2c(N)cccn12` [Example 1, 3-(8-Aminoimidazo[1,2-a]pyridin-3-yl)-N-(trans-4-hydroxycyclohexyl)-4-methylbenzenesulfonamide trifluoroacetate], for which the IC50 is 100 to 500 nM in test [1], more than 1000 nM in test [2] (Homo sapiens) and 500 to 2000 nM in test [3].

On to `Cc1ccc(S(=O)(=O)NC23CC(CC#N)(C2)C3)cc1-c1cnc2c(N)nc(C(F)(F)F)cn12` [Example 276, 3-(8-Amino-6-(trifluoromethyl)imidazo[1,2-a]pyrazin-3-yl)-N-(3-(cyanomethyl)bicyclo[1.1.1]pentan-1-yl)-4-methylbenzenesulfonamide trifluoroacetate salt], for which the IC50 in test [1] is less than 100 nM; in test [2] (Homo sapiens), less than 100 nM; in test [3], 100 to 500 nM.
